Results from ChEMBL document CHEMBL1201862, “PubChem BioAssay data set” (2004).
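Protocol summary: plate cells (96-well), add compound at 5 concentrations, incubate 48 h, interpolate endpoints linearly. Here, GI50 denotes the concentration required for 50% inhibition of growth.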 Calls of active or inactive are those of the source. Rule as the data show it: active = GI50 up to about 1.1 µM and inactive = higher. Square brackets hold non-standard residues; d marks the D form. Peptide text beside a SMILES is read from it. * marks the point of attachment. Phe(4-NO2) = N[CH](Cc1ccc([N+](=O)[O-])cc1)C(=O)O; Cbz = O=C(OCc1ccccc1)*

How the values were obtained:
Assay in all cases: NCI tumour cell line growth inhibition, 48 h
BT-549 = system: BT-549
SW-620 = system: SW-620
EKVX = system: EKVX
NCI/ADR-RES = system: NCI/ADR-RES
HCC 2998 = system: HCC 2998
SR = system: SR
IGROV-1 = system: IGROV-1
HOP-92 = system: HOP-92
NCI-H460 = system: NCI-H460
MDA-MB-435 = system: MDA-MB-435
SF-539 = system: SF-539
ACHN = system: ACHN
TK-10 = system: TK-10
M14 = system: M14
U-251 = system: U-251
HOP-62 = system: HOP-62
KM12 = system: KM12
RPMI-8226 = system: RPMI-8226
A498 = system: A498

Measured: GI50

CCOc1cc(C2SCC(=O)N2c2ccc(Oc3ccc(Cl)cc3)c(Cl)c2)ccc1O (stereo not drawn)
inactive: BT-549 15.1 µM | SW-620 17 µM | EKVX 18 µM | NCI/ADR-RES 17.7 µM | HCC 2998 17.9 µM | SR 2.04 µM | IGROV-1 15.9 µM | HOP-92 18.6 µM | NCI-H460 19.2 µM | MDA-MB-435 19 µM | SF-539 16.1 µM | ACHN 17.4 µM | TK-10 17.6 µM | M14 23.5 µM | U-251 18.4 µM | HOP-62 17.6 µM | KM12 16.9 µM | RPMI-8226 14.7 µM

CC(=O)Nc1ccc(-c2cc(C(=O)O)c3cc4ccccc4cc3n2)cc1
inactive: BT-549 > 100 µM | SW-620 > 100 µM | EKVX > 100 µM | NCI/ADR-RES > 100 µM | SR > 100 µM | IGROV-1 > 100 µM | A498 > 100 µM | HOP-92 > 100 µM | NCI-H460 > 100 µM | MDA-MB-435 > 100 µM | SF-539 > 100 µM | ACHN > 100 µM | TK-10 > 100 µM | M14 > 100 µM | U-251 > 100 µM | HOP-62 > 100 µM | KM12 > 100 µM | RPMI-8226 > 100 µM

Fc1cccc(Cl)c1/C=N\N=C1c2ccccc2-c2ccccc21
inactive: BT-549 > 100 µM | SW-620 73.8 µM | EKVX > 100 µM | NCI/ADR-RES > 100 µM | SR 51.2 µM | IGROV-1 64.3 µM | A498 > 100 µM | HOP-92 > 100 µM | NCI-H460 79.8 µM | MDA-MB-435 36 µM | SF-539 49.4 µM | ACHN 95.3 µM | TK-10 > 100 µM | M14 > 100 µM | U-251 78.9 µM | HOP-62 65.6 µM | KM12 40.7 µM | RPMI-8226 33.9 µM

CS(=O)(=O)N(CC(=O)O)Cc1ccccc1
inactive: BT-549 > 100 µM | SW-620 > 100 µM | EKVX > 100 µM | NCI/ADR-RES > 100 µM | SR > 100 µM | IGROV-1 > 100 µM | A498 > 100 µM | HOP-92 > 100 µM | NCI-H460 > 100 µM | MDA-MB-435 > 100 µM | SF-539 > 100 µM | ACHN > 100 µM | TK-10 > 100 µM | M14 > 100 µM | U-251 > 100 µM | HOP-62 > 100 µM | KM12 > 100 µM | RPMI-8226 > 100 µM

CCN1CCC(O)(C(C(=O)O)c2ccccc2)CC1 (stereo not drawn)
inactive: BT-549 > 100 µM | SW-620 > 100 µM | EKVX > 100 µM | NCI/ADR-RES > 100 µM | HCC 2998 > 100 µM | SR > 100 µM | IGROV-1 > 100 µM | A498 > 100 µM | NCI-H460 > 100 µM | MDA-MB-435 > 100 µM | ACHN > 100 µM | TK-10 > 100 µM | M14 > 100 µM | U-251 > 100 µM | HOP-62 > 100 µM | KM12 > 100 µM | RPMI-8226 > 100 µM

CCCCCCC(N)(CCCCCC)C(=O)Nn1c(C)ccc1C
inactive: BT-549 > 100 µM | SW-620 > 100 µM | EKVX 12 µM | NCI/ADR-RES 16 µM | HCC 2998 > 100 µM | SR 29.9 µM | IGROV-1 > 100 µM | A498 > 100 µM | NCI-H460 31.8 µM | MDA-MB-435 > 100 µM | ACHN 6.55 µM | TK-10 > 100 µM | M14 > 100 µM | U-251 > 100 µM | HOP-62 > 100 µM | KM12 15.5 µM | RPMI-8226 13.6 µM

CCOC(=O)C(NC(=O)c1ccccc1)(c1ccc(S(=O)(=O)Nc2onc(C)c2C)cc1)C(F)(F)F (stereo not drawn)
inactive: BT-549 > 100 µM | SW-620 > 100 µM | EKVX > 100 µM | NCI/ADR-RES > 100 µM | HCC 2998 > 100 µM | SR > 100 µM | IGROV-1 > 100 µM | HOP-92 > 100 µM | NCI-H460 > 100 µM | MDA-MB-435 > 100 µM | SF-539 > 100 µM | ACHN > 100 µM | TK-10 > 100 µM | M14 > 100 µM | U-251 > 100 µM | HOP-62 > 100 µM | KM12 > 100 µM | RPMI-8226 > 100 µM

CCOC(=O)[C@H]1C[C@@H](C(=O)c2ccccc2)N2N=C(c3ccc(Br)cc3)C=C[C@H]12
inactive: BT-549 > 100 µM | SW-620 > 100 µM | NCI/ADR-RES > 100 µM | HCC 2998 > 100 µM | SR 9.48 µM | A498 > 100 µM | NCI-H460 > 100 µM | MDA-MB-435 > 100 µM | ACHN > 100 µM | TK-10 > 100 µM | M14 > 100 µM | U-251 > 100 µM | HOP-62 > 100 µM | KM12 > 100 µM | RPMI-8226 > 100 µM

O=[N+]([O-])C(=C(Nc1cccc2cccnc12)Nc1cccc2cccnc12)C(Cl)=C(Cl)Cl
inactive: BT-549 30.1 µM | SW-620 66.7 µM | EKVX > 100 µM | NCI/ADR-RES 28.8 µM | HCC 2998 > 61.7 µM | SR > 100 µM | IGROV-1 3.98 µM | A498 > 100 µM | NCI-H460 33.4 µM | MDA-MB-435 36.6 µM | SF-539 > 100 µM | ACHN 22 µM | TK-10 > 100 µM | M14 > 100 µM | U-251 55.1 µM | HOP-62 > 100 µM | KM12 45.2 µM | RPMI-8226 23.6 µM

COc1ccc(-n2sc3ncccc3c2=O)cc1
inactive: BT-549 20.4 µM | SW-620 32.1 µM | EKVX 14.8 µM | NCI/ADR-RES 25 µM | HCC 2998 46.5 µM | SR 13.2 µM | IGROV-1 23.6 µM | HOP-92 27.7 µM | NCI-H460 34.6 µM | MDA-MB-435 28.8 µM | SF-539 17.3 µM | ACHN 19.4 µM | TK-10 18.9 µM | M14 21.9 µM | U-251 23.1 µM | HOP-62 23.1 µM | KM12 19.1 µM | RPMI-8226 28.3 µM

CCOC(=O)CCC(NC(=O)OCc1ccccc1)C(=O)NC(CCC(=O)OCC)C(=O)NC(CCC(=O)OCC)C(=O)NC(CCC(=O)OCC)C(=O)NC(CCC(=O)OCC)C(=O)NC(Cc1ccc([N+](=O)[O-])cc1)C(=O)NC(CCC(=O)OCC)C(=O)NC(CCC(=O)OCC)C(=O)NC(CCC(=O)OCC)C(=O)NC(CCC(=O)OCC)C(=O)NC(CCC(=O)OCC)C(=O)OCC (stereo not drawn) (Cbz-E(OEt)E(OEt)E(OEt)E(OEt)E(OEt)[Phe(4-NO2)]E(OEt)E(OEt)E(OEt)E(OEt)E(OEt)-OEt; configuration not given here)
inactive: BT-549 > 50 µM | SW-620 > 50 µM | EKVX > 50 µM | NCI/ADR-RES > 50 µM | HCC 2998 > 50 µM | SR > 50 µM | IGROV-1 > 50 µM | A498 > 50 µM | NCI-H460 > 50 µM | MDA-MB-435 > 50 µM | SF-539 > 50 µM | ACHN > 50 µM | TK-10 > 50 µM | M14 16.8 µM | U-251 > 50 µM | HOP-62 > 50 µM | KM12 > 50 µM | RPMI-8226 > 50 µM
